The nature of the data set: Human HepG2 cell viability assay in 384 well format. Type of data set: toxicity, cell-based. The arrangement: dose 125 nL, time 70.5 hour; concentration not given beside the values. Particulars: HepG2 cells, read-out: Inhibition.

For `Cn1c(=O)c2sccc2n(Cc2ccccc2)c1=O`, the cytotoxicity at 70.5 h was 2.6%.

Regarding `O=C1NCCO[C@H]2CN(C(=O)CCc3ccccc3Cl)CC[C@@H]12`, the cytotoxicity at 70.5 h was 22.6%.

As to `COCC1c2nnn(C)c2CCN1C(=O)Cc1ccc2c(c1)OCO2` (stereo not given), the cytotoxicity at 70.5 h is 9.52%.

Turning to `O=C(c1ccnnc1)N1C[C@@H]2CN(c3ncccn3)C[C@@H]2C1`, the cytotoxicity at 70.5 h amounted to 7.41%.

Consider `CN(C)c1ncnc2c1CCN(c1ccccc1)CC2`, for which the cytotoxicity at 70.5 h was found to be 13.6%.

In the case of `Cn1cnc(C(=O)N2CC3(CCN(S(=O)(=O)c4ccccc4)C3)C2)c1`, the cytotoxicity at 70.5 h was -7.62%.

On to `CS(=O)(=O)N1CCC2(CCCN(c3ncc(F)cn3)C2)C1` (stereo not given), for which the cytotoxicity at 70.5 h is -7.4%.

For `CCS(=O)(=O)N1CCCC2(CCCN2C(=O)c2cn(C)cn2)C1` (stereo not given), the cytotoxicity at 70.5 h was -8.17%.

Regarding `O=C(c1ccnnc1)N1CC2(CCN(c3ncccn3)C2)C1`, the cytotoxicity at 70.5 h is -5.07%.

Take `COCC(=O)N1CC2(CCN(c3ccccc3)C2)C1`: the cytotoxicity at 70.5 h was -5.97%.

For `O=C(c1ccoc1)N1C[C@@H]2CN(c3ncccn3)C[C@@H]2C1`, the cytotoxicity at 70.5 h was -4.89%.

For `COc1ncnc2c1CCN(c1cccc(F)c1)CC2`, the cytotoxicity at 70.5 h is -6.07%.

For the compound `Cc1cc(F)ccc1NC(=O)Cn1cc(C(=O)O)ccc1=O`, the cytotoxicity at 70.5 h was -18.2%.

Regarding `COc1cccc(C2C3=C(COC3=O)Nc3[nH]nc(C)c32)c1O` (stereo not given), the cytotoxicity at 70.5 h was -3.51%.

`CC(C)NC(=O)c1cc2c([nH]c1=O)CC(c1cccs1)CC2=O` (stereo not given): the cytotoxicity at 70.5 h came to 6.88%.

Take `COc1cc(CO)c(OC)c2c1OCO2`: the cytotoxicity at 70.5 h was -8.39%.

As to `Cc1ccc(N2Cc3nc(=O)[nH]n3C2=O)cc1`, the cytotoxicity at 70.5 h came out at 6.49%.

On to `O=C1N(c2cccc(Cl)c2)Cc2nc(=O)[nH]n21`, for which the cytotoxicity at 70.5 h is -3.18%.

For `COC(=O)CNC(=O)CSCc1nc(O)c2cc(C)sc2n1`, the cytotoxicity at 70.5 h was 4.84%.

As to `COc1cc(OC)cc(C2SCC(=O)Nc3ccsc32)c1` (stereo not given), the cytotoxicity at 70.5 h is -4.19%.

As for `CC(C)c1cc2c(O)nc(CSCC(=O)NCc3ccncc3)nc2s1`, the cytotoxicity at 70.5 h is -12.9%.

Regarding `O=C1CC(c2ccc(C(=O)O)cc2)c2ncn(-c3ccccc3F)c2N1` (stereo not given), the cytotoxicity at 70.5 h is -11.1%.

As for `O=C1CC(c2ccc(C(=O)O)cc2)c2ncn(-c3ccc(F)cc3)c2N1` (stereo not given), the cytotoxicity at 70.5 h is -4.89%.

For `COCCNC(=O)CSCc1nc(O)c2cc(C(C)C)sc2n1`, the cytotoxicity at 70.5 h was -8.44%.

As to `COc1ccc(N2Cc3nc(=O)[nH]n3C2=O)cc1`, the cytotoxicity at 70.5 h stood at 6.34%.

`O=C1CC(c2ccc(C(=O)O)cc2)c2ncn(-c3cccc(Cl)c3)c2N1` (stereo not given): the cytotoxicity at 70.5 h was -9.82%.

Consider `CC1CCc2nc(O)c(C(=O)NCCCN3CCN(C)CC3)cc2C1` (stereo not given), for which the cytotoxicity at 70.5 h was -7.22%.

Turning to `Cc1csc(CCNC(=O)c2cc3c(nc2O)CCC(C)C3)n1` (stereo not given), the cytotoxicity at 70.5 h is -8.45%.

Turning to `COC(=O)C(C)NC(=O)CSCc1nc(O)c2cc(C(C)C)sc2n1` (stereo not given), the cytotoxicity at 70.5 h is 6.75%.

In the case of `COc1cc(C2SCC(=O)Nc3ccsc32)cc(OC)c1OC` (stereo not given), the cytotoxicity at 70.5 h is -14.5%.

As to `O=c1c2cnc(N3CCCC3)nc2ccn1-c1cccc(C(F)(F)F)c1`, the cytotoxicity at 70.5 h was -5.84%.

Regarding `Cc1ccc(Sc2ccc(N3CCC(C(=O)O)CC3)nn2)cc1`, the cytotoxicity at 70.5 h came to 33.4%.

For `Cc1c(C)n(CC(O)CN2CCC(C)CC2)c2c(Cl)cccc12` (stereo not given), the cytotoxicity at 70.5 h worked out at 14.8%.

For `Cc1c(C)n(CC(O)CN2CCC(O)CC2)c2c(Cl)cccc12` (stereo not given), the cytotoxicity at 70.5 h is 16.5%.

Take `Cc1cc(C)c(C#N)c(N2CCC(Cc3ccccc3)CC2)n1`: the cytotoxicity at 70.5 h was -2.18%.

As for `COc1ncc(C(=O)NCc2ccccc2)cn1`, the cytotoxicity at 70.5 h was determined as 0.247%.

On to `CCN(CC)C(=O)Cn1c(C)cc2nc(SC)n(CC(C)C)c(=O)c21`, for which the cytotoxicity at 70.5 h is -6.31%.

Consider `CSc1nc2cc(C)n(CC(=O)NC(C)C)c2c(=O)n1CC(C)C`, for which the cytotoxicity at 70.5 h is -4.16%.

On to `CSc1nc2cc(C)n(CC(=O)N3CCCC3)c2c(=O)n1CC(C)C`, for which the cytotoxicity at 70.5 h is -5.31%.

Turning to `CCOC(=O)CSc1ccc(-c2nc(C)no2)cn1`, the cytotoxicity at 70.5 h is 1.96%.

For `Cc1noc(C2(NC(=O)c3cccnc3O)CCCCC2)n1`, the cytotoxicity at 70.5 h was found to be 2.75%.

Take `COc1cccc(Cn2c(=O)n(C)c(=O)c3sccc32)c1`: the cytotoxicity at 70.5 h was determined as 0.75%.

Consider `O=C(O)C1CCN(c2ccc(Sc3ccc(Br)cc3)nn2)CC1`, for which the cytotoxicity at 70.5 h was 26.1%.

Regarding `O=c1[nH]nc2nc(N3CCOCC3)ccn12`, the cytotoxicity at 70.5 h was -1%.

`Cc1ccc(Sc2ccc(N3CCCC(C(=O)O)C3)nn2)cc1` (stereo not given): the cytotoxicity at 70.5 h is 0.439%.

In the case of `O=c1[nH]nc2nc(N3CCSCC3)ccn12`, the cytotoxicity at 70.5 h is 0.517%.

In the case of `Oc1nnc(-c2ccccc2)c2sc(N3CCCCC3)nc12`, the cytotoxicity at 70.5 h amounted to 0.482%.

Turning to `CCOC(=O)c1cn(CC(O)c2ccccc2OC)nn1` (stereo not given), the cytotoxicity at 70.5 h was 7.58%.

Turning to `COc1cc(Cl)c(C)cc1-n1nnc(C(=O)O)c1-c1ccncc1`, the cytotoxicity at 70.5 h stood at 28.1%.

In the case of `CC(C)=CCC/C(C)=C\CNCc1ccco1`, the cytotoxicity at 70.5 h was determined as 2.6%.

Consider `O=C(O)c1ccc2[nH]cc(CN3CCOCC3)c2c1`, for which the cytotoxicity at 70.5 h came out at 2.68%.

For `CC(C)n1[nH]c(=O)c2c1NC(=O)CC2C1CCCCC1` (stereo not given), the cytotoxicity at 70.5 h was 4.13%.

As for `O=C1COc2ccc(S(=O)(=O)NC3CC3)c3c2N1CCC3`, the cytotoxicity at 70.5 h is 7.26%.

With `COCc1nc2nc(O)c3c(n2n1)NC(=O)CC3c1ccc(SC)cc1` (stereo not given), the cytotoxicity at 70.5 h came to 1.29%.

As to `CCc1nc(C#N)c(N2CCC(c3nc(-c4ccccc4)no3)CC2)o1`, the cytotoxicity at 70.5 h worked out at 0.267%.

With `Cc1noc(C2CCN(c3oc(C)nc3C#N)CC2)n1`, the cytotoxicity at 70.5 h came to 2.04%.

Consider `CC(C)CN1C(=O)CC(N2CCN(c3ccc(F)cc3)CC2)C1=O` (stereo not given), for which the cytotoxicity at 70.5 h worked out at 13.6%.

With `COCCCN1C(=O)CC(N2CCN(c3ccc(F)cc3)CC2)C1=O` (stereo not given), the cytotoxicity at 70.5 h is -1.4%.

On to `COCCNC(=O)c1sccc1N(C)S(=O)(=O)c1ccc(Cl)cc1`, for which the cytotoxicity at 70.5 h was -22.2%.

Consider `O=c1[nH]c2nc(N3CCOCC3)ncc2c(=O)n1-c1cccc(F)c1`, for which the cytotoxicity at 70.5 h is -2.92%.

In the case of `O=c1[nH]c2nc(N3CCSCC3)ncc2c(=O)n1-c1ccc(F)cc1`, the cytotoxicity at 70.5 h is -16.9%.

On to `CCN(c1ccc(C(=O)NCCN2CCOCC2)cc1)S(=O)(=O)CC`, for which the cytotoxicity at 70.5 h was -25.1%.

Consider `O=C(c1ccccc1-n1cnnn1)N1CCC2(CC1)OCCO2`, for which the cytotoxicity at 70.5 h is -1.41%.

In the case of `CCCn1[nH]c(CNc2ccccc2)nc1=O`, the cytotoxicity at 70.5 h is -2.36%.

On to `O=C(Nc1ccc(Cl)cn1)c1nn(C2CCS(=O)(=O)C2)c2c1CCCC2` (stereo not given), for which the cytotoxicity at 70.5 h was -23%.

On to `COc1ccc(OC)c(C2SCC(=O)Nc3n[nH]cc32)c1` (stereo not given), for which the cytotoxicity at 70.5 h was -9.28%.

Take `O=C(Nc1ccc(Cl)cc1)c1nn(C2CCS(=O)(=O)C2)c2c1CCCC2` (stereo not given): the cytotoxicity at 70.5 h is -19.1%.

Regarding `Cc1cc(O)c(OCC(=O)/N=c2\[nH]c(C)cs2)cn1`, the cytotoxicity at 70.5 h is -2.18%.

Turning to `CC(C)(C)NC(=O)c1nn(C2CCS(=O)(=O)C2)c2c1CCCC2` (stereo not given), the cytotoxicity at 70.5 h was -18.7%.

`O=C(c1cc(-n2cnnn2)ccc1Cl)N1CCCCCC1`: the cytotoxicity at 70.5 h was -2.04%.

Regarding `CC(C)NC(=O)c1ccc2c(c1)nc1n2CCN(Cc2ccco2)C1`, the cytotoxicity at 70.5 h was -10.4%.

As to `CCOC(=O)c1s/c(=N\C(=O)COc2cnc(C)cc2O)[nH]c1C`, the cytotoxicity at 70.5 h is -19%.

For the compound `Cc1ccc(N2N=C(C(=O)NCC3CC3)S(=O)(=O)c3cccnc32)cc1`, the cytotoxicity at 70.5 h was -8.14%.

For `CCc1c(C(=O)O)nnn1-c1ccc(C)cc1C`, the cytotoxicity at 70.5 h is -17.4%.

Turning to `O=C1c2cnc(N3CCOCC3)nc2CN1c1ccc2c(c1)OCO2`, the cytotoxicity at 70.5 h is -5.67%.

As to `CCn1nccc1CNC(=O)C1CCCC1`, the cytotoxicity at 70.5 h was -6.56%.

As for `Cc1ncsc1C(=O)N1CCc2nnc(C3CCCCN3C)n2CC1` (stereo not given), the cytotoxicity at 70.5 h is -2.05%.

For `CN(C)c1cc(CC(NC(=O)C2CC2)c2ccccc2)nc(C2CC2)n1` (stereo not given), the cytotoxicity at 70.5 h worked out at 16.9%.

As for `CN(C)CC1(O)CCN(C(=O)Cc2ccc3c(c2)CCC3)C1` (stereo not given), the cytotoxicity at 70.5 h was 0.63%.

In the case of `c1cnc(CC2COCCN(C3CCCCC3)C2)cn1` (stereo not given), the cytotoxicity at 70.5 h amounted to 1.48%.

Consider `CN(C)C(=O)c1cn[nH]c1C1CCCN1Cc1c[nH]cn1` (stereo not given), for which the cytotoxicity at 70.5 h is 0.232%.

On to `Cc1cn[nH]c1C1COCCN1C(=O)c1cc(F)ccc1F` (stereo not given), for which the cytotoxicity at 70.5 h is 5.9%.

Regarding `Cc1nc2c(c(=O)[nH]1)CCN(Cc1ccc3c(c1)CCCN3C)C2`, the cytotoxicity at 70.5 h was 0.602%.

For `Cc1nc(=O)c2ccccc2n1C1=CCN(CC(=O)N2CCCC2)CC1`, the cytotoxicity at 70.5 h was -1.43%.

With `CNC(=O)CCc1cccc(C2CCCN(c3cc(C)ncn3)C2)n1` (stereo not given), the cytotoxicity at 70.5 h was -2.33%.

Regarding `CN(C)C(=O)c1cn[nH]c1C1CCCN1Cc1cncn1C` (stereo not given), the cytotoxicity at 70.5 h was -0.0963%.

Regarding `CC(C)C(=O)N1CCCC(Cc2cccnc2)C1` (stereo not given), the cytotoxicity at 70.5 h was -0.448%.

For `CCS(=O)(=O)N1CCC(c2nn(CCN(C)C)c3ncccc23)C1` (stereo not given), the cytotoxicity at 70.5 h was -1.3%.

Consider `Cc1nc(CN(C)C(=O)CN(C)C)nc2c1CCC(=O)N2CCC(C)C`, for which the cytotoxicity at 70.5 h was -0.759%.

Consider `Cc1nc(NC2CCN(S(=O)(=O)c3ccccc3)CC2)[nH]c(=O)c1C`, for which the cytotoxicity at 70.5 h is -9.46%.

On to `COc1cc(CN)c(OC)c2c1OCO2`, for which the cytotoxicity at 70.5 h was -15.1%.

As to `CC(C)(CO)NCc1ccc(OCc2ccc3c(c2)OCCO3)cc1`, the cytotoxicity at 70.5 h is -2.91%.

Turning to `c1cc(NCc2ccncc2)nc(C2CCCNC2)c1` (stereo not given), the cytotoxicity at 70.5 h is -1.2%.

As for `c1coc(CNc2ncc3c(n2)C2(CCNC2)COC3)c1` (stereo not given), the cytotoxicity at 70.5 h was -4.32%.

For `c1cnc(N2CCOC3(COCCN(Cc4cc[nH]n4)C3)C2)nc1` (stereo not given), the cytotoxicity at 70.5 h was -8.27%.

For the compound `COCCC(=O)N1CCN(CC2CC2)c2nc(C)ccc2C1`, the cytotoxicity at 70.5 h was 9.16%.

On to `c1c2c(nn1CC1CC1)C(CNC1CCOCC1)OCC2` (stereo not given), for which the cytotoxicity at 70.5 h was -11.6%.

Consider `CN1CC2(CCN(C(=O)Cc3ccccn3)CC2)OCC1=O`, for which the cytotoxicity at 70.5 h was -5.16%.

On to `c1c2c(nn1CC1CCOCC1)C(CNC1CCOCC1)OCC2` (stereo not given), for which the cytotoxicity at 70.5 h amounted to 7.06%.

As to `Cn1cc2c(n1)C(CNC1CCOCC1)OCC2` (stereo not given), the cytotoxicity at 70.5 h is -5.41%.

The record behind these values is ChEMBL document CHEMBL3507680, “University of Dundee, Gates Library screen for HepG2 cell viability”.
